≈ marks a conversion by molar mass, not a printed value.
Key:
[1] = system: red blood cells (mechanically defibrinated sheep blood); assay: Hemolysis assay (cell lysis); type: cell-based; parameters: red blood cell lysis: unit not given here; conditions: 1 hour, 37° C.
Procedure: The effects of the compounds described herein to lyse cells was evaluated in this example. Hemolysis assays were performed on mechanically defibrinated sheep blood (Hemostat Labs: DSB030). 1.5 mL of blood was placed into a microcentrifuge tube and centrifuged at 10,000 rpm for ten minutes. The supernatant was removed and then the cells were resuspended with 1 mL of phosphate-buffered saline (PBS). The suspension was centrifuged as previously, the supernatant was removed, and cells were resuspended two more times. The final cell suspension was diluted twentyfold with PBS. The twentyfold suspension dilution was then aliquoted into microcentrifuge tubes containing compound serially diluted in PBS. TritonX (1% by volume) served as a positive control (100% lysis marker) and sterile PBS served as a negative control (0% lysis marker). Samples were then placed in an incubator at 37° C. and shaken at 200 rpm. After 1 hour, the samples were centrifuged at 10,000 rpm for ten minutes. The absorbance of the supernatant was measured with a UV spectrometer at a 540 nm wavelength. See, e.g., Peng, Chem. Comm. 2011, 47, 4896-4898.

[2] = system: Streptococcus mutans wild-type strain UA159; assay: MIC assay, S. mutans; type: cell-based; conditions: planktonic, 5% CO2, 37° C., 20-24 hours
Text: (§1) Streptococcus mutans wild-type strain UA159 was provided by Dr. Bettina Buttaro from Temple University Medical School, Philadelphia, Pa. Streptococcus gordonii strain DL1 and Streptococcus sanguinis strain 10904 were provided by Dr. Robert G. Quivey from University of Rochester Medical School. Streptococcus gordonii strain DL1 may be obtained from the American Type Culture Collection under accession #49818. Streptococcus sanguinis strain 10904 may be obtained from the National Collection of Type Cultures under accession #10904. Bacteria were routinely maintained on in Bacto™ Todd-Hewitt (TH) agar plates and liquid cultures were grown in Bacto™ Todd-Hewitt broth (THB). For growth of biofilms, THB was supplemented with 0.1% sucrose. Incubation was stagnant at 37° C. Bacterial strains Methicillin-Resistant Staphylococcus aureus HPV107, Staphylococcus epidermidis Fussel [NCTC 11047, R. Hugh 2466], Streptococcus sobrinus SL1 [CCM 6070, CNCTC 9/89], Enterococcus faecalis NCTC 775 [DSM 20478, JCM 8726, NCDO 581, Tissier], Pseudomonas aeruginosa [CCEB 481, MDB strain BU 277, NCIB 8295, NCPPB 1965, NCTC 10332, NRRL B-771, R. Hugh 815], Serratia marcescens BS 303 [CDC 813-60, NCIB 9155, NCTC 10211], and Acinetobacter baumannii 2208 [81, DSM 6974] were purchased from the American Type Culture Collection.
(§2) Stock solutions of compounds (10 mM) were serial diluted (200 μL, 100 μL, 50 μL, 10 μL, and 2 μL) in THB media in flat-bottom 96-well microtiter plates (total volume 100 μL). Bacterial cultures were grown in brain heart infusion or nutrient broth media to mid-exponential phase, back diluted to an OD of 0.1 and then inoculated into the 96-well plate to reach a final volume of 200 μL. Plates were inoculated at 37° C. in 5% CO2 for 20-24 hours upon which time wells were evaluated visually for bacterial growth and/or the wells' OD630 was evaluated via spectrophotometer. […] DMSO controls corresponding to each test concentration were performed. Biological triplicates were performed to confirm results.

[3] = system: Streptococcus sanguinis strain 10904; assay: MIC assay, S. sanguinis; type: cell-based; conditions: 5% CO2, 37° C., 20-24 hours
Text: as §1, §2

[4] = system: Streptococcus gordonii strain DL1; assay: MIC assay, S. gordonii; type: cell-based; conditions: 5% CO2, 37° C., 20-24 hours
Text: as §1, §2

S. mutans = S. mutans MBC assay; type: cell-based, Streptococcus mutans; conditions: for MBC: Streptococcus mutans, 3-log reduction in CFU count (99.9% bacterial death); for bacteriostatic or bactericidal properties (regrow analysis, MIC vs MBC): S. mutans
Procedure: MIC assay was performed (above) and each well diluted (log-dilution) into a new 96-well microtiter plate. Five μL from each dilution was then plated on THB agar plates and incubated for 24 hours. Colony counts were performed to determine MBC which is defined as the concentration which there is a 3-log reduction in CFU count which corresponds to 99.9% bacterial death.

[5] = Concentration 500 μM, TritonX 100% lysis, PBS 0% lysis

SMILES	MIC [2]	MIC [3]	MIC [4]	also measured
COc1cc(CCc2ccc(C(C)(C)C)c(O)c2)ccc1C(C)(C)C [Compound 1H-2, (tert-butyl)-5-(4-(tert-butyl)-3-methoxyphenethyl)phenol]				red blood cell lysis ([1]; Concentration 0.25 μM): 0.13; red blood cell lysis ([1]; Concentration 0.5 μM): −0.02; red blood cell lysis ([1]; Concentration 1 μM): −0.02; red blood cell lysis ([1]; Concentration 2 μM): −0.03; red blood cell lysis ([1]; Concentration 4 μM): 0.16; red blood cell lysis ([1]; Concentration 8 μM): −0.03; red blood cell lysis ([1]; Concentration 16 μM): −0.03; red blood cell lysis ([1]; Concentration 32 μM): −0.02; red blood cell lysis ([1]; Concentration 63 μM): 0.02; red blood cell lysis ([1]; Concentration 125 μM): 0.12; red blood cell lysis ([1]; Concentration 250 μM): 0.21; red blood cell lysis [1, 5]: 0.33
CC(C)(C)c1ccc(CCc2cccc(O)c2)cc1O [Compound 1H-3, 2-(tert-butyl)-5-(3-hydroxyphenethyl)phenol]				red blood cell lysis ([1]; Concentration 0.25 μM): 0.11; red blood cell lysis ([1]; Concentration 0.5 μM): 0.00; red blood cell lysis ([1]; Concentration 1 μM): −0.03; red blood cell lysis ([1]; Concentration 2 μM): −0.03; red blood cell lysis ([1]; Concentration 4 μM): −0.03; red blood cell lysis ([1]; Concentration 8 μM): 0.29; red blood cell lysis ([1]; Concentration 16 μM): −0.03; red blood cell lysis ([1]; Concentration 32 μM): −0.03; red blood cell lysis ([1]; Concentration 63 μM): 0.00; red blood cell lysis ([1]; Concentration 125 μM): 0.46; red blood cell lysis ([1]; Concentration 250 μM): 0.69; red blood cell lysis [1, 5]: 0.81
COc1cccc(CCc2ccccc2O)c1 [Compound 6]				red blood cell lysis ([1]; Concentration 0.25 μM): 0.03; red blood cell lysis ([1]; Concentration 0.5 μM): −0.02; red blood cell lysis ([1]; Concentration 1 μM): −0.03; red blood cell lysis ([1]; Concentration 2 μM): −0.03; red blood cell lysis ([1]; Concentration 4 μM): 0.35; red blood cell lysis ([1]; Concentration 8 μM): −0.03; red blood cell lysis ([1]; Concentration 16 μM): −0.03; red blood cell lysis ([1]; Concentration 32 μM): −0.02; red blood cell lysis ([1]; Concentration 63 μM): 0.07; red blood cell lysis ([1]; Concentration 125 μM): −0.02; red blood cell lysis ([1]; Concentration 250 μM): 0.02; red blood cell lysis [1, 5]: 0.27
Cc1cc(O)c(C)c(O)c1-c1cc(C(C)(C)C)c(O)c(C(C)(C)C)c1 [Compound A2, 3′,5′-Di-tert-3,6-methyl-[1,1′-biphenyl]-2,4,4′-triol]	32 µM (≈ 11 µg/mL)	32 µM (≈ 11 µg/mL)	32 µM (≈ 11 µg/mL)	MBC (S. mutans): 63 µM (≈ 21.6 µg/mL)
Cc1cc(-c2cc(C)c(O)c(C)c2)cc(C)c1O [Compound A3]	> 250 µM	> 250 µM	> 250 µM	
CCCc1c(C)cc(C)c(-c2c(C)cc(C)c(CCC)c2O)c1O [Compound A4, 4,4’,6,6′-Tetramethyl-3,3′-dipropyl-[1,1′-diphenyl]2,2′-diol]	> 250 µM	> 250 µM	> 250 µM	
C=CCc1c(C)cc(C)c(-c2c(C)cc(C)c(CC=C)c2O)c1O [Compound A5, 3,3′Diallyl-4,4′,6,6′-tetramethyl-[1,1′-biphenyl]-2,2′-diol]	> 250 µM	> 250 µM	> 250 µM	
C=CCc1cc(-c2c(O)cc(C)c(C)c2C)cc(C(C)(C)C)c1O [Compound A6, 3′-Allyl-5′-(tert-butyl)-4,5,6-trimethyl-[1,1′-biphenyl]2,4′-diol]	> 250 µM	> 250 µM	> 250 µM	
Cc1cc(-c2cc(C)c(O)c(C(C)(C)C)c2)c(C(C)C)cc1O [Compound A7]	32 µM (≈ 10 µg/mL)	32 µM (≈ 10 µg/mL)	16 µM (≈ 5 µg/mL)	MBC (S. mutans): 32 µM (≈ 10 µg/mL)
C=CCc1cc(-c2cc(C)ccc2O)cc(C(C)(C)C)c1O [Compound A8, 3′-Allyl-5′-(tert-butyl)-5-methyl-[1,1′-biphenyl]2,4′-diol]	> 250 µM	125 µM (≈ 37.1 µg/mL)	125 µM (≈ 37.1 µg/mL)	
Cc1cc(O)c(-c2cc(C(C)C)c(O)c(C(C)C)c2)c(C)c1C [Compound A9, 3′,5′-Diisopropyl-4,5,6-trimethyl-[1,1′-biphenyl]-2,4′-diol]	> 250 µM	> 250 µM	> 250 µM	
C=CCc1cc(-c2cc(C)c(O)cc2C(C)C)cc(CC=C)c1O [Compound A10, 3′,5′-Diallyl-2-isopropyl-5-methyl-[1,1′-biphenyl]-4,4′-diol]	> 250 µM	250 µM (≈ 80.6 µg/mL)	250 µM (≈ 80.6 µg/mL)	
Cc1c(O)c(-c2cc(C(C)(C)C)c(O)c(C(C)(C)C)c2)c(C)c(-c2cc(C(C)(C)C)c(O)c(C(C)(C)C)c2)c1O [Compound A11, 3,3″,5,5″-Tetra-tert-butyl-2′,5′-dimethyl-[1,1′:3′,1″-terphenyl]-4,4′,4″,6′-tetraol]	> 250 µM	> 250 µM	> 250 µM	
Cc1cc(-c2c(O)ccc3ccccc23)cc(C)c1O [Compound B1, 1-(4-Hydroxy-3,5-dimethylphenyl)naphthalene-2-ol]	> 250 µM	> 250 µM	> 250 µM	
COc1cc(-c2c(O)ccc3ccccc23)cc(OC)c1O [Compound B2, 1-(4-Hydroxy-3,5-dimethoxyphenyl)naphthalen-2-ol]	> 250 µM	> 250 µM	> 250 µM	
CC(C)(C)c1cc(-c2c(O)ccc3ccccc23)cc(C(C)(C)C)c1O [Compound B3]	63 µM (≈ 22 µg/mL)	63 µM (≈ 22 µg/mL)	63 µM (≈ 22 µg/mL)	
CC(C)(C)c1cc(-c2c(O)ccc3ccc(O)cc23)cc(C(C)(C)C)c1O [Compound B4, 1-(3,5-Di-tert-butyl-4-hydroxyphenol)naphthalene-2-7-diol]	125 µM (≈ 45.6 µg/mL)	125 µM (≈ 45.6 µg/mL)	125 µM (≈ 45.6 µg/mL)	
CC(C)(C)c1cc(-c2c(O)ccc3cc(Br)ccc23)cc(C(C)(C)C)c1O [Compound B5, 6-Bromo-1-(3,5-di-tert-butyl-4-hydroxyphenyl)naphthalen-2-ol]	8 µM (≈ 3.42 µg/mL)	4 µM (≈ 1.71 µg/mL)	16 µM (≈ 6.84 µg/mL)	bacteriostatic or bactericidal properties (regrow analysis, MIC vs MBC) (S. mutans): bacteriostatic; MBC (S. mutans): 125 µM (≈ 53.4 µg/mL)
CC(C)c1cc(-c2c(O)ccc3cc(Br)ccc23)cc(C(C)C)c1O [Compound B6, 6-Bromo-1-(4-hydroxy-3,5-diisopropylphenyl)naphthalen-2-ol]	> 250 µM	> 250 µM	> 250 µM	
C=CCc1cc(-c2c(O)ccc3cc(OC)ccc23)cc(C(C)(C)C)c1O [Compound B7, 1-(3-Allyl-5-(tert-butyl)-4-hydroxyphenyl)-6-methoxynaphthalen-2-ol]	125 µM (≈ 45.3 µg/mL)	63 µM (≈ 22.8 µg/mL)	125 µM (≈ 45.3 µg/mL)	
C=CCc1cc(-c2c(O)ccc3cc(Br)ccc23)cc(C(C)(C)C)c1O [Compound B8, 1-(3-Allyl-5-(tert-butyl)-4-hydroxyphenyl)-6-bromonaphthalen-2-ol]	16 µM (≈ 6.58 µg/mL)	8 µM (≈ 3.29 µg/mL)	16 µM (≈ 6.58 µg/mL)	bacteriostatic or bactericidal properties (regrow analysis, MIC vs MBC) (S. mutans): bactericidal; MBC (S. mutans): 32 µM (≈ 13.2 µg/mL)
CCCc1cc(-c2c(O)ccc3cc(Br)ccc23)cc(C(C)(C)C)c1O [Compound B12, 6-Bromo-1-(3-(tert-butyl)-4-hydroxy-5-propylphenyl)naphthalen-2-ol]	> 250 µM	250 µM (≈ 103 µg/mL)	250 µM (≈ 103 µg/mL)	
CC(C)c1cc(-c2c(O)ccc3cc(-n4cccn4)ccc23)cc(C(C)C)c1O [Compound B13, 1-(4-Hydroxy-3,5-diisopropylphenyl)-6-(1H-pyrazol-1-yl)naphthalen-2-ol]	> 250 µM	> 250 µM	> 250 µM	
C=CCc1cc(-c2c(O)ccc3c(-c4cc(CC=C)c(O)c(C(C)(C)C)c4)c(O)ccc23)cc(C(C)(C)C)c1O [Compound B14, 1,5-Bis(3-allyl-5-(tert-butyl)-4-hydroxyphenyl)naphthalene-2,6-diol]	63 µM (≈ 33.8 µg/mL)	16 µM (≈ 8.59 µg/mL)	32 µM (≈ 17.2 µg/mL)	
